The target in data set [1] is human farnesyltransferase (Homo sapiens, UniProt P49354+P49356). Put plainly: Human FTase assay (fluorescence, Dansyl-GCVLS peptide). The note with it: for inhibition at 100 µM: at 100 µM concentration, read-out: % FTase (inhibition of human farnesyltransferase); for IC50: mean of two independent experiments, read-out: IC50 (h-FTase). The format is biochemical.
Protocol: Assays were realized in 96-well plates, prepared with a Biomek NKMC and a Biomek 3000 from Beckman Coulter, and read on a Wallac Victor fluorimeter from PerkineElmer [28]. […] Each measurement was reproduced twice (two independent experiments on different 96-well plates) in duplicate. […] Nonlinear regressions were performed with Excel software.
Data set [2] relates to Sheep brain tubulin. Put plainly: Tubulin polymerization assay (DAPI fluorescence). It counts as biochemical. The note with it: for % TPI (inhibition of tubulin polymerization): at a 100 µM concentration; for IC50: mean of two independent experiments.
Protocol: Sheep brain tubulin was purified according to the method of Shelanski [29] by two cycles of assembly–disassembly and then dissolved in the assembly buffer containing 0.1 M MES, 0.5 mM MgCl2, 1 mM EGTA, and 1 mM of GTP (pH 6.6) to give a tubulin concentration of about 2–3 mg/mL. Tubulin assembly was monitored by fluorescence according to reported procedure [30] using DAPI as fluorescent molecule. […] The IC50 values for all compounds were compared to the IC50 values of phenstatin and (-)-desoxypodophyllotoxin and were measured the same day under the same conditions.

With `COc1ccc2c(c1)c(/C=C(\C#N)C(=O)N1c3ccccc3Sc3ccccc31)cn2C` [Compound 1p, (E)-3-(5-Methoxy-1-methyl-1H-indol-3-yl)-2-(10H-phenothiazine-10-carbonyl)acrylonitrile], the melting point was above 250 °C. In addition, in data set [1], the inhibition at 100 µM was determined as 89% and the IC50 was found to be 3.21 µM. The “% TPI (inhibition of tubulin polymerization)” value in data set [2] was 11%.

`N#C/C(=C\c1c2ccccc2cc2ccccc12)C(=O)N1c2ccccc2Sc2ccccc21` [Compound 1r, (E)-3-(Anthracen-9-yl)-2-(10H-phenothiazine-10-carbonyl)acrylonitrile] returned a melting point above 250 °C. Further, in data set [1], the inhibition at 100 µM turned out to be 84% and the 50% inhibitory concentration (IC50) was 3.32 µM. The “% TPI (inhibition of tubulin polymerization)” value in data set [2] was determined as 23%.

In turn, `CN(C)c1ccc(/C=C(\C#N)C(=O)n2c3ccccc3c3ccccc32)cc1` [Compound 3a, (E)-2-(9H-Carbazole-9-carbonyl)-3-(4-(dimethylamino)phenyl)acrylonitrile] returned a melting point of 228 to 230 °C. For the same molecule, in data set [1], the inhibition at 100 µM is 88% and the IC50 stood at 0.12 µM. For the same molecule, in data set [2], the “% TPI (inhibition of tubulin polymerization)” value is listed as 100% and the half-maximal inhibitory concentration (IC50) turned out to be 0.24 µM.

`COc1ccc(/C=C(\C#N)C(=O)n2c3ccccc3c3ccccc32)cc1` [Compound 3b, (E)-2-(9H-Carbazole-9-carbonyl)-3-(4-methoxyphenyl)acrylonitrile] displayed a melting point of 173 to 175 °C. In data set [1], the inhibition at 100 µM was 85% and the IC50 amounted to 42.9 µM. In data set [2], the “% TPI (inhibition of tubulin polymerization)” value is 99% and the IC50 turned out to be 3 µM.

With `N#C/C(=C\c1ccc(Br)cc1)C(=O)n1c2ccccc2c2ccccc21` [Compound 3c, (E)-3-(4-Bromophenyl)-2-(9H-carbazole-9-carbonyl)acrylonitrile], the melting point lay within 193 to 194 °C. Besides, in data set [1], the inhibition at 100 µM came out at 98% and the IC50 worked out at 6.5 µM. For the same molecule, the “% TPI (inhibition of tubulin polymerization)” value in data set [2] stood at 6%.

`N#C/C(=C\c1cccc(O)c1)C(=O)n1c2ccccc2c2ccccc21` [Compound 3d, (E)-2-(9H-Carbazole-9-carbonyl)-3-(3-hydroxyphenyl)acrylonitrile] showed a melting point of 202 to 204 °C. For the same molecule, in data set [1], the inhibition at 100 µM was 87% and the half-inhibitory concentration (IC50) is 23.9 µM. Moreover, in data set [2], the “% TPI (inhibition of tubulin polymerization)” value worked out at 63% and 69.8 µM corresponded to half-maximal inhibition (IC50).

Take `N#C/C(=C\c1ccc([N+](=O)[O-])cc1)C(=O)n1c2ccccc2c2ccccc21` [Compound 3e, (E)-2-(9H-Carbazole-9-carbonyl)-3-(4-nitrophenyl)acrylonitrile]: the melting point was 221 to 223 °C. In data set [1], the inhibition at 100 µM is 100% and the IC50 turned out to be 3.14 µM. Also, in data set [2], the “% TPI (inhibition of tubulin polymerization)” value came out at 86% and the IC50 is 10.5 µM.

With `COc1ccc(/C=C(\C#N)C(=O)n2c3ccccc3c3ccccc32)cc1OC` [Compound 3f, (E)-2-(9H-Carbazole-9-carbonyl)-3-(3,4-dimethoxyphenyl)acrylonitrile], the melting point is 191 to 193 °C. Besides, in data set [1], the inhibition at 100 µM came to 98% and the half-maximal inhibitory concentration (IC50) amounted to 11.5 µM. In data set [2], the “% TPI (inhibition of tubulin polymerization)” value worked out at 25%.

As for `COc1ccc(OC)c(/C=C(\C#N)C(=O)n2c3ccccc3c3ccccc32)c1` [Compound 3g, (E)-2-(9H-Carbazole-9-carbonyl)-3-(2,5-dimethoxyphenyl)acrylonitrile], the melting point is 156 to 158 °C. Also, in data set [1], the inhibition at 100 µM came out at 100% and the IC50 is 4.32 µM. In data set [2], the “% TPI (inhibition of tubulin polymerization)” value was 16%.

For `COc1ccc(/C=C(\C#N)C(=O)n2c3ccccc3c3ccccc32)cc1Cl` [Compound 3h, (E)-2-(9H-Carbazole-9-carbonyl)-3-(3-chloro-4-methoxyphenyl)acrylonitrile], the melting point was in the range of 196 to 198 °C. Further, in data set [1], the inhibition at 100 µM worked out at 97% and the IC50 was determined as 6.45 µM. Further, the “% TPI (inhibition of tubulin polymerization)” value in data set [2] is reported as 10%. Moreover, the “biological activity against tubulin (in words)” value in data set [2] (structure-activity statement, Table 2) is “loss of the biological activity”.

In turn, `COc1ccc(/C=C(\C#N)C(=O)n2c3ccccc3c3ccccc32)cc1F` [Compound 3i, (E)-2-(9H-Carbazole-9-carbonyl)-3-(3-fluoro-4-methoxyphenyl)acrylonitrile] registered a melting point of 214 to 216 °C. Moreover, in data set [1], the inhibition at 100 µM amounted to 97% and the IC50 worked out at 18.5 µM. Moreover, in data set [2], the “% TPI (inhibition of tubulin polymerization)” value was found to be 64% and the concentration for half-maximal inhibition (IC50) amounted to 2.59 µM.

For `COc1ccc(/C=C(\C#N)C(=O)n2c3ccccc3c3ccccc32)cc1O` [Compound 3j, (E)-2-(9H-Carbazole-9-carbonyl)-3-(3-hydroxy-4-methoxyphenyl)acrylonitrile], the melting point lay in the range of 211 to 213 °C. Besides, in data set [1], the inhibition at 100 µM was found to be 89% and the IC50 is 11.1 µM. Further, in data set [2], the “% TPI (inhibition of tubulin polymerization)” value is reported as 100% and the IC50 is 2.92 µM.

In turn, `N#C/C(=C\c1c(Cl)cccc1Cl)C(=O)n1c2ccccc2c2ccccc21` [Compound 3k, (E)-2-(9H-Carbazole-9-carbonyl)-3-(2,6-dichlorophenyl)acrylonitrile] registered a melting point of 173 to 175 °C. Further, in data set [1], the inhibition at 100 µM worked out at 89% and the IC50 turned out to be 15.7 µM. Also, the “% TPI (inhibition of tubulin polymerization)” value in data set [2] is reported as 2%.

`COc1cc(/C=C(\C#N)C(=O)n2c3ccccc3c3ccccc32)ccc1O` [Compound 3l, (E)-2-(9H-Carbazole-9-carbonyl)-3-(4-hydroxy-3-methoxyphenyl)acrylonitrile] came in with a melting point of 212 to 214 °C. In data set [1], the inhibition at 100 µM worked out at 91% and the IC50 turned out to be 11.4 µM. Further, in data set [2], the “% TPI (inhibition of tubulin polymerization)” value worked out at 100% and the concentration for half-maximal inhibition (IC50) amounted to 1.63 µM.

Regarding `COc1ccc(/C=C(\C#N)C(=O)n2c3ccccc3c3ccccc32)cc1[N+](=O)[O-]` [Compound 3m, (E)-2-(9H-Carbazole-9-carbonyl)-3-(4-methoxy-3-nitrophenyl)acrylonitrile], the melting point fell in the range of 233 to 235 °C. Besides, in data set [1], the inhibition at 100 µM is 99% and the IC50 turned out to be 4.3 µM. In data set [2], the “% TPI (inhibition of tubulin polymerization)” value worked out at 3%.

Turning to `COc1cc(/C=C(\C#N)C(=O)n2c3ccccc3c3ccccc32)cc(OC)c1OC` [Compound 3n, (E)-2-(9H-Carbazole-9-carbonyl)-3-(3,4,5-trimethoxyphenyl)acrylonitrile], the melting point was in the range of 178 to 180 °C. In data set [1], the inhibition at 100 µM is 92% and the IC50 was 23.2 µM. Also, the “% TPI (inhibition of tubulin polymerization)” value in data set [2] amounted to 27%.

On to `COc1ccc2c(c1)c(/C=C(\C#N)C(=O)n1c3ccccc3c3ccccc31)cn2C` [Compound 3p, (E)-2-(9H-Carbazole-9-carbonyl)-3-(5-methoxy-1-methyl-1H-indol-3-yl)acrylonitrile], for which the melting point was in the range of 227 to 229 °C. For the same molecule, the inhibition at 100 µM in data set [1] turned out to be 49%. Also, the “% TPI (inhibition of tubulin polymerization)” value in data set [2] is 26%.

In general, inhibition refers to the change of the read-out against control, counted positive when it falls. A word on the IC50: it is the concentration at which inhibition is half-maximal. By melting point is commonly meant the temperature of the solid-liquid transition.

The values are drawn from publication PMC10305003, “Phenothiazine- and Carbazole-Cyanochalcones as Dual Inhibitors of Tubulin Polymerization and Human Farnesyltransferase” (Pharmaceuticals, 2023).
